# Experimental data reported in patent publication US8134015B2, “Compound inhibiting in vivo phosphorous transport and medicine containing the same” (Kyowa Hakko Kirin Co., Ltd., priority 2003, dated 2012).
# pIC50: −log10 of the molar value.
# Molecular target: T1, rat NaPi-2b (Rattus norvegicus, UniProt Q9JJ09)
# T1 construct: expressed in transfected cells; host or cells: Xenopus oocytes injected with cRNA
# T1 sequence (Q9JJ09 1-695): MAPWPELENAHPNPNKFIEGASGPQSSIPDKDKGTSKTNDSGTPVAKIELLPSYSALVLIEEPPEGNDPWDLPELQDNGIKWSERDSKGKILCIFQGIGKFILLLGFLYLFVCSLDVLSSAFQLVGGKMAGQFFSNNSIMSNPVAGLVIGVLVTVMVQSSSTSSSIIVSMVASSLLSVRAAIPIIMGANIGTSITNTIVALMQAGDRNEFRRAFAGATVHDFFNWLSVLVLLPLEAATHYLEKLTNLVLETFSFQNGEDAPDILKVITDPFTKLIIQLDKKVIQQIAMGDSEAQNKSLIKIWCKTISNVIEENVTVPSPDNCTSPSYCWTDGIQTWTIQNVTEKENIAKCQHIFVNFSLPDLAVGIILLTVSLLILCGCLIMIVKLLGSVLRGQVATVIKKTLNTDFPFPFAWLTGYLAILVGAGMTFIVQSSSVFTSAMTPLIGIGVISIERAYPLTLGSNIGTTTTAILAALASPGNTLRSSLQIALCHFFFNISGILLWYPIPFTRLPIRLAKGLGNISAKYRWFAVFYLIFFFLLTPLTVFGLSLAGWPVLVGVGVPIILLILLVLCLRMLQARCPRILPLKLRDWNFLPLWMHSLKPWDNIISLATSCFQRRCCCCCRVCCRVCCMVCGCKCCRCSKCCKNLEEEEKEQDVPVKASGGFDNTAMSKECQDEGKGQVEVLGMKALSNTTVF
# Assay: Sodium-dependent phosphate uptake of Xenopus oocytes which expressed NaPi-2b (32P)
# Assay type: cell-based
# Settings: Xenopus oocytes expressing rat NaPi-2b, 32P radioactive phosphorus; read-out: IC50 (phosphate uptake inhibitory activity)
# Summary of the method: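 Percent inhibition at 300 μM and 100 μM comes from the same inhibition curve of 32P uptake. Assay used oocytes expressing rat NaPi-2b after 2 days of culture.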
row,SMILES,pIC50
1,"CCOc1ccc(C(=O)Nc2ccc(Br)cc2C(=O)N/N=C/c2cccc(F)c2)cc1 [Compound 501, N-[4-Bromo-2-(3-fluoro-benzylidene-hydrazinocarbonyl)-phenyl]-4-ethoxy-benzamide]",4.64
2,"CCOc1ccc(C(=O)Nc2ccc(Br)cc2C(=O)N/N=C/c2ccc(F)cc2)cc1 [Compound 502, N-[4-Bromo-2-(4-fluoro-benzylidene-hydrazinocarbonyl)-phenyl]-4-ethoxy-benzamide]",4.80
3,"CCOc1ccc(C(=O)Nc2ccc(Br)cc2C(=O)N/N=C/c2ccc(C)cc2)cc1 [Compound 503, N-[4-Bromo-2-(4-methyl-benzylidene-hydrazinocarbonyl)-phenyl]-4-ethoxy-benzamide]",4.99
4,"CCOc1ccc(C(=O)Nc2ccc(Br)cc2C(=O)N/N=C/c2ccc(C)c(C)c2)cc1 [Compound 504, N-[4-Bromo-2-(3,4-dimethyl-benzylidene-hydrazinocarbonyl)-phenyl]-4-ethoxy-benzamide]",4.72
5,"O=C(Nc1ccccc1C(=O)N/N=C/c1cccc(F)c1)c1ccccn1 [Compound 505, Pyridin-2-carboxylic acid [2-(3-fluoro-benzylidene-hydrazinocarbonyl)-phenyl]-amide]",5.92
6,"O=C(Nc1ccccc1C(=O)N/N=C/c1ccc(F)cc1)c1ccccn1 [Compound 506, Pyridin-2-carboxylic acid [2-(4-fluoro-benzylidene-hydrazinocarbonyl)-phenyl]-amide]",4.71
7,"Cc1ccc(/C=N/NC(=O)c2ccccc2NC(=O)c2ccccn2)cc1C [Compound 507, Pyridin-2-carboxylic acid [2-(3,4-dimethyl-benzylidene-hydrazinocarbonyl)-phenyl]-amide]",5.73
8,"O=C(Nc1ccccc1C(=O)N/N=C/c1ccc(Cl)c(C(F)(F)F)c1)c1ccccn1 [Compound 508, Pyridin-2-carboxylic acid [2-(4-chloro-3-trifluoromethyl-benzylidene-hydrazinocarbonyl)-phenyl]-amide]",6.32
9,"O=C(N/N=C/c1cccc(F)c1)c1cc(Br)ccc1NC(=O)C1CCCCC1 [Compound 509, Cyclohexanecarboxylic acid [4-bromo-2-(3-fluoro-benzylidene-hydrazinocarbonyl)-phenyl]-amide]",4.87
10,"O=C(Nc1ccc(Br)cc1C(=O)N/N=C/c1cccc(F)c1)c1ccno1 [Compound 510, Isoxazole-5-carboxylic acid [4-bromo-2-(3-fluoro-benzylidene-hydrazinocarbonyl)-phenyl]-amide]",5.83
11,"Cc1cccc(/C=N/NC(=O)c2cc(Br)ccc2NC(=O)c2ccno2)c1 [Compound 511, Isoxazole-5-carboxylic acid [4-bromo-2-(3-methyl-benzylidene-hydrazinocarbonyl)-phenyl]-amide]",5.67
12,"Cc1ccc(/C=N/NC(=O)c2cc(Br)ccc2NC(=O)c2ccno2)cc1C [Compound 512, Isoxazole-5-carboxylic acid [4-bromo-2-(3,4-dimethyl-benzylidene-hydrazinocarbonyl)-phenyl]-amide]",4.55
13,"O=C(Nc1ccc(Br)cc1C(=O)N/N=C/c1ccc(Cl)c(C(F)(F)F)c1)c1ccno1 [Compound 513, Isoxazole-5-carboxylic acid [4-bromo-2-(4-chloro-3-trifluoromethyl-benzylidene-hydrazinocarbonyl)-phenyl]-amide]",4.80
14,"Cc1cc(C(=O)Nc2ccccc2C(=O)N/N=C/c2cccc(F)c2)c(C)o1 [Compound 514, 2,5-Dimethyl-furan-3-carboxylic acid [2-(3-fluoro-benzylidene-hydrazinocarbonyl)-phenyl]-amide]",5.67
15,"Cc1cc(C(=O)Nc2ccccc2C(=O)N/N=C/c2ccc(F)cc2)c(C)o1 [Compound 515, 2,5-Dimethyl-furan-3-carboxylic acid [2-(4-fluoro-benzylidene-hydrazinocarbonyl)-phenyl]-amide]",5.72
16,"Cc1cccc(/C=N/NC(=O)c2ccccc2NC(=O)c2cc(C)oc2C)c1 [Compound 516, 2,5-Dimethyl-furan-3-carboxylic acid [2-(3-methyl-benzylidene-hydrazinocarbonyl)-phenyl]-amide]",5.67
17,"COc1ccc(C(=O)Nc2scc(C)c2C(=O)N/N=C/c2cccc(F)c2)cc1OC [Compound 517, N-[3-(3-Fluoro-benzylidene-hydrazinocarbonyl)-4-methyl-thiophen-2-yl]-3,4-dimethoxy-benzamide]",5.77
18,"COc1ccc(C(=O)Nc2scc(C)c2C(=O)N/N=C/c2cccc(C)c2)cc1OC [Compound 518, 3,4-Dimethoxy-N-[4-methyl-3-(3-methyl-benzylidene-hydrazinocarbonyl)-thiophen-2-yl]-benzamide]",5.82
19,"COc1ccc(C(=O)Nc2scc(C)c2C(=O)N/N=C/c2ccc(C)cc2)cc1OC [Compound 519, 3,4-Dimethoxy-N-[4-methyl-3-(4-methyl-benzylidene-hydrazinocarbonyl)-thiophen-2-yl]-benzamide]",5.76
20,"COc1ccc(C(=O)Nc2scc(C)c2C(=O)N/N=C/c2ccc(C)c(C)c2)cc1OC [Compound 521, N-[3-(3,4-Dimethyl-benzylidene-hydrazinocarbonyl)-4-methyl-thiophen-2-yl]-3,4-dimethoxy-benzamide]",5.91
21,"COc1ccc(C(=O)Nc2scc(C)c2C(=O)N/N=C/c2ccc(Cl)c(C(F)(F)F)c2)cc1OC [Compound 522, N-[3-(4-Chloro-3-trifluoromethyl-benzylidene-hydrazinocarbonyl)-4-methyl-thiophen-2-yl]-3,4-dimethoxy-benzamide]",5.96

# Same assay, conditions: phosphate uptake, oocytes expressing rat NaPi-2b; 300 μM, determined from inhibition curve
row,SMILES,inhibition at 300 µM
1,"Cc1ccc(/C=N/NC(=O)c2scc(C)c2NC(=O)c2cccc(CSc3nc[nH]n3)c2)cc1C [Compound 523, N-[2-(3,4-Dimethyl-benzylidene-hydrazinocarbonyl)-4-methyl-thiophen-3-yl]-3-(1H-[1,2,4]triazol-3-ylsulfanylmethyl)-benzamide]",50.1%
2,"Cc1csc(C(=O)N/N=C/c2cccc(F)c2)c1NC(=O)c1cccc(CSc2nc[nH]n2)c1 [Compound 524, N-[2-(3-Fluoro-benzylidene-hydrazinocarbonyl)-4-methyl-thiophen-3-yl]-3-(1H-[1,2,4]triazol-3-ylsulfanylmethyl)-benzamide]",42.8%
3,"Cc1ccc(/C=N/NC(=O)c2scc(C)c2NC(=O)c2cccc(CSCCCO)c2)cc1C [Compound 525, N-[2-(3,4-Dimethyl-benzylidene-hydrazinocarbonyl)-4-methyl-thiophen-3-yl]-3-(3-hydroxy-propylsulfanylmethyl)-benzamide]",38.9%
4,"Cc1ccc(/C=N/NC(=O)c2scc(C)c2NC(=O)c2cccc(CSCCCO)c2)cc1 [Compound 526, 3-(3-Hydroxy-propylsulfanylmethyl)-N-[4-methyl-2-(4-methyl-benzylidene-hydrazinocarbonyl)-thiophen-3-yl]-benzamide]",40.2%
5,"Cc1csc(C(=O)N/N=C/c2cccc(F)c2)c1NC(=O)c1cccc(CSCCCO)c1 [Compound 527, N-[2-(3-Fluoro-benzylidene-hydrazinocarbonyl)-4-methyl-thiophen-3-yl]-3-(3-hydroxy-propylsulfanylmethyl)-benzamide]",40.9%
